Values quoted from earlier work as cited in PubChem BioAssay AID1259409 (Chemical Carcinogenesis Research Information System (CCRIS), 2018).

System: rodent chemically induced tumor inhibition, incidence and multiplicity
Test: CCRIS tumor inhibitor studies
Settings: Carcinogen: N-BUTYL-N-(4-HYDROXYBUTYL)NITROSAMINE [3817-11-6], Route [Inhibitor]: INTRAGASTRIC, Species: MOUSE, Strain/Sex: C57BL/6/FEMALE, Promoter: NONE

Compound: CN1CCN(c2c(F)cc3c(=O)c(C(=O)O)cn(CCF)c3c2F)CC1
- outcome (Dose [Inhibitor]: 10 MG ONCE/D FOR 1 WK BEGINNING 1 WK PRIOR TO FIRST CARCINOGEN DOSE (STUDY DURATION: 13 WK), Target Tissue: Type of Lesion: URINARY BLADDER: CARCINOMA IN SITU, Dose [Carcinogen]: 0.05% IN DRINKING WATER FOR 8 WK BEGINNING IMMEDIATELY POST LAST INHIBITOR DOSE (STUDY DURATION: 13 WK)): 1, 0, not significant
- outcome (Dose [Inhibitor]: 10 MG ONCE/D FOR 1 WK BEGINNING 1 WK PRIOR TO FIRST CARCINOGEN DOSE (STUDY DURATION: 13 WK), Target Tissue: Type of Lesion: URINARY BLADDER: INVASIVE CARCINOMA, Dose [Carcinogen]: 0.05% IN DRINKING WATER FOR 8 WK BEGINNING IMMEDIATELY POST LAST INHIBITOR DOSE (STUDY DURATION: 13 WK)): 0, 0, not significant
- outcome (Dose [Inhibitor]: 10 MG ONCE/D FOR 1 WK BEGINNING 1 WK PRIOR TO FIRST CARCINOGEN DOSE (STUDY DURATION: 17 WK), Target Tissue: Type of Lesion: URINARY BLADDER: CARCINOMA IN SITU, Dose [Carcinogen]: 0.05% IN DRINKING WATER FOR 8 WK BEGINNING IMMEDIATELY POST LAST INHIBITOR DOSE (STUDY DURATION: 17 WK)): 1, 0, not significant
- outcome (Dose [Inhibitor]: 10 MG ONCE/D FOR 1 WK BEGINNING 1 WK PRIOR TO FIRST CARCINOGEN DOSE (STUDY DURATION: 17 WK), Target Tissue: Type of Lesion: URINARY BLADDER: INVASIVE CARCINOMA, Dose [Carcinogen]: 0.05% IN DRINKING WATER FOR 8 WK BEGINNING IMMEDIATELY POST LAST INHIBITOR DOSE (STUDY DURATION: 17 WK)): 1, 0, not significant
- outcome (Dose [Inhibitor]: 10 MG ONCE/D FOR 1 WK BEGINNING 1 WK PRIOR TO FIRST CARCINOGEN DOSE (STUDY DURATION: 21 WK), Target Tissue: Type of Lesion: URINARY BLADDER: CARCINOMA IN SITU, Dose [Carcinogen]: 0.05% IN DRINKING WATER FOR 12 WK BEGINNING IMMEDIATELY POST LAST INHIBITOR DOSE (STUDY DURATION: 21 WK)): 0, 1, not significant
- outcome (Dose [Inhibitor]: 10 MG ONCE/D FOR 1 WK BEGINNING 1 WK PRIOR TO FIRST CARCINOGEN DOSE (STUDY DURATION: 21 WK), Target Tissue: Type of Lesion: URINARY BLADDER: INVASIVE CARCINOMA, Dose [Carcinogen]: 0.05% IN DRINKING WATER FOR 12 WK BEGINNING IMMEDIATELY POST LAST INHIBITOR DOSE (STUDY DURATION: 21 WK)): 9, 6, not significant
- outcome (Dose [Inhibitor]: 50 MG ONCE/D FOR 1 WK BEGINNING 1 WK PRIOR TO FIRST CARCINOGEN DOSE (STUDY DURATION: 13 WK), Target Tissue: Type of Lesion: URINARY BLADDER: CARCINOMA IN SITU, Dose [Carcinogen]: 0.05% IN DRINKING WATER FOR 8 WK BEGINNING IMMEDIATELY POST LAST INHIBITOR DOSE (STUDY DURATION: 13 WK)): 1, 0, not significant
- outcome (Dose [Inhibitor]: 50 MG ONCE/D FOR 1 WK BEGINNING 1 WK PRIOR TO FIRST CARCINOGEN DOSE (STUDY DURATION: 13 WK), Target Tissue: Type of Lesion: URINARY BLADDER: INVASIVE CARCINOMA, Dose [Carcinogen]: 0.05% IN DRINKING WATER FOR 8 WK BEGINNING IMMEDIATELY POST LAST INHIBITOR DOSE (STUDY DURATION: 13 WK)): 0, 0, not significant
- outcome (Dose [Inhibitor]: 50 MG ONCE/D FOR 1 WK BEGINNING 1 WK PRIOR TO FIRST CARCINOGEN DOSE (STUDY DURATION: 17 WK), Target Tissue: Type of Lesion: URINARY BLADDER: CARCINOMA IN SITU, Dose [Carcinogen]: 0.05% IN DRINKING WATER FOR 8 WK BEGINNING IMMEDIATELY POST LAST INHIBITOR DOSE (STUDY DURATION: 17 WK)): 1, 0, not significant
- outcome (Dose [Inhibitor]: 50 MG ONCE/D FOR 1 WK BEGINNING 1 WK PRIOR TO FIRST CARCINOGEN DOSE (STUDY DURATION: 17 WK), Target Tissue: Type of Lesion: URINARY BLADDER: INVASIVE CARCINOMA, Dose [Carcinogen]: 0.05% IN DRINKING WATER FOR 8 WK BEGINNING IMMEDIATELY POST LAST INHIBITOR DOSE (STUDY DURATION: 17 WK)): 1, 0, not significant
- outcome (Dose [Inhibitor]: 50 MG ONCE/D FOR 1 WK BEGINNING 1 WK PRIOR TO FIRST CARCINOGEN DOSE (STUDY DURATION: 21 WK), Target Tissue: Type of Lesion: URINARY BLADDER: CARCINOMA IN SITU, Dose [Carcinogen]: 0.05% IN DRINKING WATER FOR 12 WK BEGINNING IMMEDIATELY POST LAST INHIBITOR DOSE (STUDY DURATION: 21 WK)): 0, 2, not significant
- outcome (Dose [Inhibitor]: 50 MG ONCE/D FOR 1 WK BEGINNING 1 WK PRIOR TO FIRST CARCINOGEN DOSE (STUDY DURATION: 21 WK), Target Tissue: Type of Lesion: URINARY BLADDER: INVASIVE CARCINOMA, Dose [Carcinogen]: 0.05% IN DRINKING WATER FOR 12 WK BEGINNING IMMEDIATELY POST LAST INHIBITOR DOSE (STUDY DURATION: 21 WK)): 9, 5, not significant
